pIC50: −log10 of the molar value.
What follows are molecules tested against MAGL (Homo sapiens (Human), UniProt Q99685) (assay: 2-AG assay: MAGL inhibitory activity by hydrolysis of 2-arachidonoylglycerol to arachidonic acid (mass spectrometry)). Conditions: measured in 2-AG assay (footnote [b]); 8 μM 2-arachidonoylglycerol.
Type: biochemical
Procedure: Alternatively, compounds were profiled for MAGL inhibitory activity by determining the enzymatic activity by following the hydrolysis of the natural substrate 2-arachidonoylglycerol resulting in arachidonic acid, which can be followed by mass spectrometry. This assay is hereinafter abbreviated “2-AG assay”.
A C18 SPE cartridge (G9205A) was used in an acetonitrile/water liquid setup. […] The activity of the compounds was calculated based on the ratio of intensities [arachidonic acid/d8-arachidonic acid].

Sequence of MAGL (Q99685 whole entry, species assumed): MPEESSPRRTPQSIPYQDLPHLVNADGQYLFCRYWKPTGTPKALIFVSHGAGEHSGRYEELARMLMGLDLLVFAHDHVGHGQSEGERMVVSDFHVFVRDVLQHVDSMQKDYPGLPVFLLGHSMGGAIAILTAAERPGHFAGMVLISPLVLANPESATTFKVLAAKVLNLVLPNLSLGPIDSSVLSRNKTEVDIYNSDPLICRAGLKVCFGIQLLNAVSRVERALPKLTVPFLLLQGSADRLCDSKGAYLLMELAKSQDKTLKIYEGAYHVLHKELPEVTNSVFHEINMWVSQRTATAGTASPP

Compound | pIC50
O=C1CO[C@H]2CCN(C(=O)N3CCC(OCc4ccc(C(F)(F)F)cc4F)(C(F)(F)F)C3)C[C@H]2N1 (some centres unmarked) [Example 245] | 5.77
O=C1CO[C@H]2CCN(C(=O)N3CCC(Oc4ccc(Cl)c(C5CC5)c4)CC3)C[C@H]2N1 [Example 120] | 8.15
O=C1CO[C@H]2CCN(C(=O)N3CCC(Oc4ccc(C(F)(F)F)c(-n5cccn5)c4)CC3)C[C@H]2N1 [Example 209] | 7.13
O=C1CO[C@H]2CCN(C(=O)N3CCC(Oc4cc(-n5cccn5)cc(C(F)(F)F)c4)CC3)C[C@H]2N1 [Example 201] | 6.62
O=C1CO[C@H]2CCN(C(=O)N3CCC(Cc4c(F)cc(C(F)(F)F)cc4F)CC3)C[C@H]2N1 [Example 211] | 7.77
O=C1CO[C@H]2CCN(C(=O)N3CC(OCc4ccc(S(F)(F)(F)(F)F)cc4F)C3)C[C@H]2N1 [Example 240] | 7.80
O=C1CO[C@H]2CCN(C(=O)N3CCC(Oc4ccc(Cl)c(-n5cccn5)c4)CC3)C[C@H]2N1 [Example 205] | 7.07
O=C1CO[C@H]2CCN(C(=O)N3CCC(Cc4ccc(C(F)(F)F)cc4F)CC3)C[C@H]2N1 [Example 92] | 7.85
O=C1CO[C@H]2CCN(C(=O)N3CC(OCc4ccc(Cl)c(Cl)c4)C3)C[C@H]2N1 [Example 224] | 8.52
Cc1c(COC2CN(C(=O)N3CC[C@@H]4OCC(=O)N[C@@H]4C3)C2C)cccc1C(F)(F)F (some centres unmarked) [Example 253] | 8.00
O=C1CO[C@H]2CCN(C(=O)N3CCC(Oc4ccc(Cl)cc4)CC3)C[C@H]2N1 [Example 210] | 7.10
O=C1CO[C@H]2CCN(C(=O)N3CCC(Oc4ccc(C(F)(F)F)c(Cl)c4)CC3)C[C@H]2N1 [Example 255] | 8.00
Cc1cc(OC(F)(F)F)ccc1COC1CN(C(=O)N2CC[C@@H]3OCC(=O)N[C@@H]3C2)C1 [Example 251] | 8.30
O=C1CO[C@H]2CCN(C(=O)N3CC(/C=C/c4c(F)cccc4C(F)(F)F)C3)C[C@H]2N1 [Example 289] | 8.52
O=C1CO[C@H]2CCN(C(=O)N3CC(Oc4cccc(N5CC6(CCCO6)C5)c4Cl)C3)C[C@H]2N1 [Example 275, (+)-(4aR,8aS)-6-[3-[2-Chloro-3-(5-oxa-2-azaspiro[3.4]octan-2-yl)phenoxy]azetidine-1-carbonyl]-4,4a,5,7,8,8a-hexahydropyrido[4,3-b][1,4]oxazin-3-one] | 7.49
O=C1CO[C@H]2CCN(C(=O)N3CCCC(Cc4ccc(C(F)(F)F)cc4)CC3)C[C@H]2N1 (some centres unmarked) [Example 142] | 7.12
CC1(F)CN(c2cccc(OC3CN(C(=O)N4CC[C@@H]5OCC(=O)N[C@@H]5C4)C3)c2Cl)C1 [Example 273, (+)-(4aR,8aS)-6-[3-[2-Chloro-3-(3-fluoro-3-methyl-azetidin-1-yl)phenoxy]azetidine-1-carbonyl]-4,4a,5,7,8,8a-hexahydropyrido[4,3-b] [1,4] oxazin-3-one] | 7.05
O=C1CO[C@H]2CCN(C(=O)N3CC(Oc4cccc(N5CC6(CCC6)C5)c4Cl)C3)C[C@H]2N1 [Example 271, (+)-(4aR,8aS)-6-[3-[3-(2-Azaspiro[3.3]heptan-2-yl)-2-chloro-phenoxy]azetidine-1-carbonyl]-4,4a,5,7,8,8a-hexahydropyrido[4,3-b][1,4]oxazin-3-one] | 7.70
O=C1CO[C@H]2CCN(C(=O)N3CC(OCc4ccc(OC(F)(F)F)c(F)c4)C3)C[C@H]2N1 [Example 288] | 7.28

Compound | pIC50
CC(=O)c1cc(C(F)(F)F)ccc1CCC1CN(C(=O)N2CC[C@@H]3OCC(=O)N[C@@H]3C2)C1 [Example 220] | 8.52
Cc1c(COC2CN(C(=O)N3CC[C@@H]4OCC(=O)N[C@@H]4C3)C2)cccc1C(F)(F)F [Example 250] | 8.10
COc1cccc(C(F)(F)F)c1CCC1CN(C(=O)N2CC[C@@H]3OCC(=O)N[C@@H]3C2)C1 [Example 218] | 8.52
N#Cc1cc(C(F)(F)F)ccc1OC1CCN(C(=O)N2CC[C@@H]3OCC(=O)N[C@@H]3C2)CC1 [Example 123] | 7.09
O=C1CO[C@H]2CCN(C(=O)N3CCCC(COc4ccc(F)cc4Cl)CC3)C[C@H]2N1 (some centres unmarked) [Example 140] | 7.23
C[C@H]1[C@H](Oc2cc(C(F)(F)F)ccc2Br)CCN1C(=O)N1CC[C@@H]2OCC(=O)N[C@@H]2C1 [Example 248] | 6.22
O=C1CO[C@H]2CCN(C(=O)N3CC(Oc4ccc(C(F)(F)F)c(N5CC6(CCCCO6)C5)c4)C3)C[C@H]2N1 [Example 270, (+)-(4aR,8aS)-6-[3-[3-(5-oxa-2-azaspiro[3.5]nonan-2-yl)-4-(trifluoromethyl)phenoxy]azetidine-1-carbonyl]-4,4a,5,7,8,8a-hexahydropyrido[4,3-b][l,4]oxazin-3-one] | 7.21
CC1CN(c2cc(OC3CN(C(=O)N4CC[C@@H]5OCC(=O)N[C@@H]5C4)C3)ccc2C(F)(F)F)C1 [Example 266, (+)-(4aR,8aS)-6-[3-[3-(3-Methylazetidin-l-yl)-4-(trifluoromethyl)phenoxy]azetidine-1-carbonyl]-4,4a,5,7,8,8a-hexahydropyrido[4,3-b][l,4]oxazin-3-one] | 7.74
O=C1CO[C@H]2CCN(C(=O)N3CC(Oc4ccc(C(F)(F)F)c(C5CC5)c4)C3)C[C@H]2N1 [Example 260] | 7.74
CC(C)(C)OC1CN(c2cccc(OC3CN(C(=O)N4CC[C@@H]5OCC(=O)N[C@@H]5C4)C3)c2Cl)C1 [Example 274, (+)-(4aR,8aS)-6-(3-(3-(3-(tert-Butoxy)azetidin-1-yl)-2-chlorophenoxy)azetidine-1-carbonyl)hexahydro-2H-pyrido[4,3-b][1,4]oxazin-3(4H)-one] | 6.90
O=C1CO[C@H]2CCN(C(=O)N3CCC(Oc4cc(C(F)(F)F)ccc4F)C3)C[C@H]2N1 (some centres unmarked) [Example 286] | 6.89
CC1C(Oc2cc(C(F)(F)F)ccc2Br)CCN1C(=O)N1CC[C@@H]2OCC(=O)N[C@@H]2C1 (some centres unmarked) [Example 246] | 6.00
O=C1CO[C@H]2CCN(C(=O)N3CCC(Cc4ccc(C(F)(F)F)cc4OCC(F)(F)F)CC3)C[C@H]2N1 [Example 202] | 7.27
O=C1CO[C@H]2CCN(C(=O)N3CCCC(COc4ccc(F)cc4Cl)CC3)C[C@H]2N1 (some centres unmarked) [Example 141] | 7.40
O=C1CO[C@H]2CCN(C(=O)N3CC(OCc4cc(C(F)(F)F)c(C(F)(F)F)cn4)C3)C[C@H]2N1 [Example 234] | 8.70
O=C1CO[C@H]2CCN(C(=O)N3CC(OCC4(c5ccc(Cl)cc5Cl)CC4)C3)C[C@H]2N1 [Example 241] | 7.82
O=C1CO[C@H]2CCN(C(=O)N3CC(OCc4nc(-c5ccc(F)cc5)cs4)C3)C[C@H]2N1 [Example 244] | 7.52
Cc1cc(C(F)(F)F)ccc1OC1CCN(C(=O)N2CC[C@@H]3OCC(=O)N[C@@H]3C2)CC1 [Example 122] | 8.10
O=C1CO[C@H]2CCN(C(=O)N3CCC(COc4cccc(Cl)c4)C3)C[C@H]2N1 (some centres unmarked) [Example 90] | 6.77
